Measured values as given in patent US7968103B2, “Compositions comprising fetal hemoglobin and bacterial endotoxin and optionally additional fetal liver components” (priority 2003, dated 2011).

Key:
[1] = target: CD14 on spleen adherent cells of DBA/2 mice (mouse (cells from DBA/2 mice)) (UniProt P10810); experiment: cell-based or functional assay
[2] = Bioenhancing effect on LPS (data not shown)
mouse spleen cells = experiment: Cytokine production by mouse spleen cells with LPS and Hb; format: cell-based, C57BL/6 mice; conditions: murine spleen cells, LPS 200 ng/ml
Description: Spleen cells were pooled from 3 C57BL/6 donors (8-week male). Cells were incubated in triplicate in 2 ml medium (with 10% fetal calf serum and 200 ng/ml LPS) at a concentration of 1×10^6/ml. Medium contained in addition adult or fetal (sheep) hemoglobin at the various concentrations shown. Supernatants were harvested 24 hrs later to assay in triplicate for TNFα by ELISA. […] Control cultures (no LPS, LPS only, or fetal/adult Hb only) produced levels <50 ng/ml, <70 ng/ml or <50 ng/ml respectively.
Spleen cells were pooled from 3 C57BL/6 donors (8-week male). Cells were incubated in triplicate in 2 ml medium (with 10% fetal calf serum and 200 ng/ml LPS) at a concentration of 1×10^6/ml. Medium contained in addition adult or fetal (sheep) hemoglobin at the various concentrations shown. Supernatants were harvested 24 hrs later to assay for IL-6 in triplicate by ELISA. […] Control cultures (no LPS, LPS only, or fetal/adult Hb only) produced levels <100 ng/ml, <120 ng/ml or <100 ng/ml respectively.
In this experiment the cloned γ- and β-chain of sheep Hb were assayed as CHO extracts (20 μg/ml) together with LPS (100 ng/ml) to stimulate murine spleen cells in vitro for the production of TNFα (detection at 24 hr by ELISA) […]

[3] = system: LPS aggregates (Re-LPS from E. coli F515, S-form LPS from Salmonella enterica sv. Minnesota 188233); experiment: LPS disaggregation, automated native PAGE assay; conditions: LPS 0.275 μg/μl, hemoglobin 0.375 μg/μl, 37° C., 30 min
From the text: Concerning the molecular mechanism of the enhancement of LPS bioactivities by adult mammalian hemoglobin (HbA) preparations, a profound dispersion of the physiologically predominating large LPS aggregates (MW≧10^6 Da) by HbA has been described [Roth, R. J., 1994; Kaca, W., 1994; Roth R. J., 1999]. For analysis of potential analogous effects of highly purified fetal ovine hemoglobin (s-HbF) an automated native PAGE assay was established employing the PhastSystem™ apparatus (Amersham Pharmacia Biotech). Briefly, Re-LPS purified from E. coli F515 or S-form LPS from Salmonella enterica sv. Minnesota 188233 at a final concentration of 0.275 μg/μl was incubated in the presence or absence of the analyzed hemoglobin preparations (0.375 μg/μl) at 37° C. for 30 min. […] The denatured samples were finally analyzed by SDS-PAGE in PhastGel™ Homogeneous-20 gels equipped with PhastGel™ SDS buffer strips (Amersham Pharmacia Biotech) according to the standard protocol of the manufacturer and subsequent silver staining. In comparison to ovine HbF preparations of human HbA (SIGMA-Aldrich), adult ovine hemoglobin (s-HbA) and heme-free fetal ovine hemoglobin (s-HbF/hf) were analysed for LPS disaggregation activities in the native Phast™ PAGE assay.

[4] = system: S-form LPS, Re-LPS, Lipid A; experiment: LPS/Lipid A-specific adsorption assay; format: binding
Description: In order to identify the LPS or Lipid A-interacting protein(s) in CLP1b a LPS/Lipid A-specific adsorption assay was developed. In this screening system polyvinylchloride 96-well microtiter plates (Becton Dickinson) were coated for 14 h at 4° C. with S-form LPS from Salmonella enterica sv. Minnesota 188233, Re-LPS from E. coli F515 or a Lipid A preparation derived from the E. coli strain solubilized as triethylamine (TEA) salts in LAL reagent water (BioWhittaker) at concentrations of 5 μg/ml or 2 μg/ml, respectively. As a control a series of wells was similarly treated with LAL reagent water without the addition of LPS or Lipid A. Subsequently, the solutions were decanted and the wells were rinsed four times with Dulbeccos phosphate-buffered saline (D-PBS; Lifetechnologies) without magnesium or calcium salts. […] In addition, the lyophilized samples from the prior CLP1b incubation and the following sequence of washing steps were resuspended in 50 μl SDS-Sample buffer and the compositions of the collected samples from the adsorption assay were analyzed by SDS-PAGE in 15% (w/v) polyacrylamide gels and silver staining according to the method described by Heukeshoven [Heukeshoven, J., 1986].

human PBL = experiment: TNFα production by human PBL with LPS and Hb; format: cell-based; conditions: LPS 200 ng/ml
Description: PBL were obtained by Ficoll-hypaque purification from volunteers. Cells were incubated in triplicate in 2 ml medium (with 10% commercial human AB serum and 200 ng/ml LPS) at a concentration of 1×10^6/ml. Medium contained in addition adult or fetal (sheep) hemoglobin at the various concentrations shown. Supernatants were harvested 24 hrs later to assay in triplicate for TNFα by ELISA. […] Control cultures (no LPS, LPS only, or fetal/adult Hb only) produced levels <50 ng/ml, <100 ng/ml or <65 ng/ml respectively.
PBL were obtained by Ficoll-hypaque purification from volunteers. Cells were incubated in 2 ml medium (with 10% commercial human AB serum). Cells were incubated in the presence/absence of 500 ng/ml adult or fetal sheep hemoglobin α- or γ-chain. Control cells were incubated in the absence of hemoglobin protein (far left of Figure). In addition, each group was further subdivided into triplicates which received no additional materials (open bars), or 200 ng/ml LPS (closed bars). Supernatants were harvested 24 hrs later to assay (in triplicate) for TNFα by ELISA. Data in panels A and B are independent studies using different volunteer donors (mean ±SD). […]

adherent spleen cells = experiment: Co-stimulation of adherent spleen cells (macrophages) with LPS/CLP2p and recombinant cytokines, cytokine ELISA; format: cell-based, DBA/2 mice; conditions: 18 h; LPS 1 μg/ml, CLP2p 0.3 μg/ml, rIL-12/rIL-13 0.1 μg/ml, anti-IL-12 10 μg/ml
Description: LPS, as well as many defined cytokines, including IL-1, IL-6, IL-10, IL-12, IL-13 and IFNγ, stimulate macrophages to produce other cytokines in vitro and in vivo. […] In addition, cells were treated with CLP2p, or with cytokines, in the presence of monoclonal antibodies to cytokines. Cytokine production was measured by ELISA (all reagents purchased by Pharmingen, San Diego, USA).
IL-12 is a primary physiological stimulus for cytokine production by macrophages during inflammation [Wang, J., 1999], and LPS may mediate its stimulatory effects by inducing IL-12 production. Similarly, IL-13 may be a physiologic counter-regulator of stimulation by IL-12 [Machado, F., 1998]. […] In some cultures a monoclonal antibody to IL-12 was included. (Recombinant cytokines were obtained according to conventional protocols.) Data pooled from 3 such studies are shown in Table 1.

UniProt P10810, sequence (P10810 16-336): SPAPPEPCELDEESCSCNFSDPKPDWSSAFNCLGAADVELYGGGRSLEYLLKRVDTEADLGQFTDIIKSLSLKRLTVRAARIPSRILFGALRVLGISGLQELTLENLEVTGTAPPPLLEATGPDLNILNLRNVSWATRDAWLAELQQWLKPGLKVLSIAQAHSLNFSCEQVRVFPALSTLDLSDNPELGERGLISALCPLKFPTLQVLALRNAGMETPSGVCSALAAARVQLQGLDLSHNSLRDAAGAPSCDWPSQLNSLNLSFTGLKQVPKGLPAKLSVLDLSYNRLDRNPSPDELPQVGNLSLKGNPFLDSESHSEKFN

commercial anti-CD14 monoclonal antibody (UCHM-1, Sigma)
Inhibition % of TNF-α production by spleen adherent cells; stimulus CLP2p (0.3 µg/ml), anti-CD14 2.5 µg/ml [1]: 46% | Inhibition % of TNF-α production by spleen adherent cells; stimulus CLP2p (0.3 µg/ml), anti-CD14 10 µg/ml [1]: 80% | Inhibition % of TNF-α production by spleen adherent cells; stimulus LPS (1 µg/ml), anti-CD14 2.5 µg/ml [1]: 58% | Inhibition % of TNF-α production by spleen adherent cells; stimulus LPS (1 µg/ml), anti-CD14 10 µg/ml [1]: 81%

myoglobin
bioenhancing effect [2]: not observed

fetal Hb: purified fetal sheep hemoglobin, α and γ chains (α2γ2)
synergy with LPS in the production of TNFα or IL-6 (mouse spleen cells): clear evidence for a synergy | LPS disaggregation activity [3]: stronger LPS disaggregation activities | LPS/Lipid A interaction in CLP1b [4]: major LPS/Lipid A-interacting component | synergy with LPS for the production of TNFα (human PBL): striking synergy

rIL-13: recombinant cytokine IL-13 [reference compound]
IL-1 level in culture supernatant (adherent spleen cells): 15 ng/mL | IL-6 level in culture supernatant (adherent spleen cells): 1040 pg/mL | TNFα level in culture supernatant (adherent spleen cells): 40 ng/mL

B1: rIL-12: recombinant cytokine IL-12 (protein, UniProt P29459 23-219; P29460 23-328, looked up)
Interleukin-12 subunit alpha: RNLPVATPDPGMFPCLHHSQNLLRAVSNMLQKARQTLEFYPCTSEEIDHEDITKDKTSTVEACLPLELTKNESCLNSRETSFITNGSCLASRKTSFMMALCLSSIYEDLKMYQVEFKTMNAKLLMDPKRQIFLDQNMLAVIDELMQALNFNSETVPQKSSLEEPDFYKTKIKLCILLHAFRIRAVTIDRVMSYLNAS
Interleukin-12 subunit beta: IWELKKDVYVVELDWYPDAPGEMVVLTCDTPEEDGITWTLDQSSEVLGSGKTLTIQVKEFGDAGQYTCHKGGEVLSHSLLLLHKKEDGIWSTDILKDQKEPKNKTFLRCEAKNYSGRFTCWWLTTISTDLTFSVKSSRGSSDPQGVTCGAATLSAERVRGDNKEYEYSVECQEDSACPAAEESLPIEVMVDAVHKLKYENYTSSFFIRDIIKPDPPKNLQLKPLKNSRQVEVSWEYPDTWSTPHSYFSLTFCVQVQGKSKREKKDRVFTDKTSATVICRKNASISVRAQDRYYSSSWSEWASVPCS
IL-1 level in culture supernatant (adherent spleen cells): 235 ng/mL | IL-6 level in culture supernatant (adherent spleen cells): 359 pg/mL | TNFα level in culture supernatant (adherent spleen cells): 149 ng/mL
